Publication PMC8931161 (2022)

Key:
[1] = test system: PQS-675-WT (RNA, G4) GGGCGGGCGGCCUGCAGGGACAUGGG; experiment: fluorescence light-up; conditions: 150 mM K+, 10 mM Tris-HCl pH 7.5, 2 µM RNA
[2] = test system: PQS-675-Mut (RNA, single strand) GAGCGAGCGGCCUGCAGAGACAUGAG; experiment: fluorescence light-up; conditions: 150 mM K+, 10 mM Tris-HCl pH 7.5, 2 µM RNA
[3] = test system: PQS-675-WT-FRET (RNA, G4) GGGCGGGCGGCCUGCAGGGACAUGGG; experiment: FRET melting; conditions: 10 mM Tris-HCl pH 7.5, 1 µM PDS, 200 nM RNA
[4] = test system: PQS-675-Mut-FRET (RNA, single strand) GAGCGAGCGGCCUGCAGAGACAUGAG; experiment: FRET melting; conditions: 150 mM K+; 10 mM Tris-HCl pH 7.5; 1 µM PDS, 200 nM RNA; derived from two Tm (38.33, 38.03)
[5] = test system: PQS-675-WT (RNA, G4) GGGCGGGCGGCCUGCAGGGACAUGGG; experiment: CD melting at 264 nm; conditions: 10 mM Tris-HCl pH 7.5, 5 µM RNA, PDS concentration not stated
[6] = test system: PQS-675-WT-biotin (RNA, G4) GGGCGGGCGGCCUGCAGGGACAUGGG; experiment: bio-layer interferometry; conditions: K+ (folded in 150 mM KCl); PBST (PBS, 0.01% Tween-20), 25 °C; PDS 0.5-8 µM; 1:1 model; RNA immobilised
[7] = test system: PQS-675-Mut-biotin (RNA, single strand) GAGCGAGCGGCCUGCAGAGACAUGAG; experiment: bio-layer interferometry; conditions: K+ (folded in 150 mM KCl); PBST (PBS, 0.01% Tween-20), 25 °C; PDS 0.5-8 µM; 1:1 model; RNA immobilised

In the case of `CCc1c(C)c2cc3nc(cc4nc(cc5c(CC)c(C)c(cc1[nH]2)n5C)C(C)=C4CCC(=O)O)C(CCC(=O)O)=C3C`, the binding ([1]; 2 µM NMM) is reported as “yes” and the binding ([2]; 2 µM NMM, intensity decreased) is reported as “weak”.
`NCCOc1cc(C(=O)Nc2cc(OCCN)c3ccccc3n2)nc(C(=O)Nc2cc(OCCN)c3ccccc3n2)c1` showed a ΔTm ([3]; 150 mM K+, derived from two Tm (74.00, 77.48)) of 3.48 °C, a ΔTm ([3]; 150 mM Li+, derived from two Tm (63.27, 65.71)) of 2.44 °C and a ΔTm [4] of -0.30 °C. For the same compound, the ΔTm ([5]; 150 mM K+, derived from two Tm (70.00, 74.00)) was 4.00 °C, the ΔTm ([5]; 150 mM Li+, derived from two Tm (64.00, 64.00)) was 0.00 °C and the KD [6] was 604.9 ± 2.84 nM. The KD [7] was 3327 ± 0.07 nM.
For `Cc1ccc2c(c1)sc(-c1ccc(N(C)C)cc1)[n+]2C`, the binding ([1]; 2 µM ThT) was “yes” and the binding ([2]; 2 µM ThT, decreased but still strong, non-specific) was “yes”.
